Assay: recombinant UMI read abundance after kanamycin selection (control-corrected) (log10(CPM+1)); higher = more efficient recombination; extreme values may be limits of the assay; sequences stand for … in AGTGCAGAGAAAATCGGCCAGTTTTCTCTGCCTGCAGTCCGCATGCCGTGGGACCCCTTGGGTTCTAACCTGTTGCCTAGATTTATGCAGCGGACTGCCTTTCTCCCAAAGTGATAAACCGG…AGGTTGGTTTCACT; site = the 11-nt donor
Procedure, shortened: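 Two replicates each of selected and unselected plating were used in this pooled Escherichia coli screen of donor and donor-binding-loop pairs for the IS621 bridge recombinase. Selection was with IPTG (0.07 mM) and kanamycin. Counts of recombinant UMIs, amplified across the donor–target junction, were converted to CPM, averaged, scaled by control-derived factors and reported as log10(CPM+1).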
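Further: IS621 bridge recombinase in Escherichia coli cells against a fixed T5 target plasmid.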

Sequence | recombinant UMI read abundance (log10)
CGTTGTCCATGGACCGGTTTTCCCGGTAATCCGTATTTGAA (site CGTTGTCCTTT) | 0.00747
CGTTGTCCATGGACCGGTTTTCCCGGTAATCCGTATTTGTA (site CGTTGTCCTTA) | 0.0342
CGTTTAACATGGACCGGTTTTCCCGGTAATCCGTATTTGGC (site CGTTTAACTGC) | 0.793
CGTTTAGCATGGACCGGTTTTCCCGGTAATCCGTATTTGCT (site CGTTTAGCTAG) | 0
CGTTTAGCATGGACCGGTTTTCCCGGTAATCCGTATTTGCT (site CGTTTCGCTAG) | 0
CGTTTAGCATGGACCGGTTTTCCCGGTAATCCGTATTTGCT (site CGTTTGGCTAG) | 0
CGTTTAGCATGGACCGGTTTTCCCGGTAATCCGTATTTGCT (site CGTTTTGCTAG) | 0
CGTTTGACATGGACCGGTTTTCCCGGTAATCCGTATTTGCT (site CGTTTGACTAG) | 2.38
CGTTTGACATGGACCGGTTTTCCCGGTAATCCGTATTTGCT (site CGTTTGCCTAG) | 0
CGTTTGACATGGACCGGTTTTCCCGGTAATCCGTATTTGCT (site CGTTTGGCTAG) | 1.12
CGTTTGACATGGACCGGTTTTCCCGGTAATCCGTATTTGCT (site CGTTTGTCTAG) | 0
CGTTTGCCATGGACCGGTTTTCCCGGTAATCCGTATTTGCT (site CGTTTGACTAG) | 0
CGTTTGCCATGGACCGGTTTTCCCGGTAATCCGTATTTGCT (site CGTTTGCCTAG) | 0.79
CGTTTGCCATGGACCGGTTTTCCCGGTAATCCGTATTTGCT (site CGTTTGGCTAG) | 0.00559
CGTTTGCCATGGACCGGTTTTCCCGGTAATCCGTATTTGCT (site CGTTTGTCTAG) | 0
CGTTTGGCATGGACCGGTTTTCCCGGTAATCCGTATTTGCG (site CGTTTGGCTAG) | 0
CGTTTGGCATGGACCGGTTTTCCCGGTAATCCGTATTTGCG (site CGTTTGGCTCG) | 0.142
CGTTTGGCATGGACCGGTTTTCCCGGTAATCCGTATTTGCG (site CGTTTGGCTGG) | 0
CGTTTGGCATGGACCGGTTTTCCCGGTAATCCGTATTTGCG (site CGTTTGGCTTG) | 0

Sequence | recombinant UMI read abundance (log10)
CGTTTGGCATGGACCGGTTTTCCCGGTAATCCGTATTTGCT (site AGTTTGGCTAG) | 0
CGTTTGGCATGGACCGGTTTTCCCGGTAATCCGTATTTGCT (site CATTTGGCTAG) | 0
CGTTTGGCATGGACCGGTTTTCCCGGTAATCCGTATTTGCT (site CCTTTGGCTAG) | 0
CGTTTGGCATGGACCGGTTTTCCCGGTAATCCGTATTTGCT (site CGATTGGCTAG) | 0
CGTTTGGCATGGACCGGTTTTCCCGGTAATCCGTATTTGCT (site CGCTTGGCTAG) | 0
CGTTTGGCATGGACCGGTTTTCCCGGTAATCCGTATTTGCT (site CGGTTGGCTAG) | 0
CGTTTGGCATGGACCGGTTTTCCCGGTAATCCGTATTTGCT (site CGTATGGCTAG) | 0.00345
CGTTTGGCATGGACCGGTTTTCCCGGTAATCCGTATTTGCT (site CGTCTGGCTAG) | 0.00793
CGTTTGGCATGGACCGGTTTTCCCGGTAATCCGTATTTGCT (site CGTGTGGCTAG) | 0.00452
CGTTTGGCATGGACCGGTTTTCCCGGTAATCCGTATTTGCT (site CGTTAGGCTAG) | 0
CGTTTGGCATGGACCGGTTTTCCCGGTAATCCGTATTTGCT (site CGTTCGGCTAG) | 0.0122
CGTTTGGCATGGACCGGTTTTCCCGGTAATCCGTATTTGCT (site CGTTGGGCTAG) | 0
CGTTTGGCATGGACCGGTTTTCCCGGTAATCCGTATTTGCT (site CGTTTAGCTAG) | 0
CGTTTGGCATGGACCGGTTTTCCCGGTAATCCGTATTTGCT (site CGTTTCGCTAG) | 0
CGTTTGGCATGGACCGGTTTTCCCGGTAATCCGTATTTGCT (site CGTTTGACTAG) | 0
CGTTTGGCATGGACCGGTTTTCCCGGTAATCCGTATTTGCT (site CGTTTGCCTAG) | 0
CGTTTGGCATGGACCGGTTTTCCCGGTAATCCGTATTTGCT (site CGTTTGGCTAA) | 0.00833
CGTTTGGCATGGACCGGTTTTCCCGGTAATCCGTATTTGCT (site CGTTTGGCTAC) | 0.00533
CGTTTGGCATGGACCGGTTTTCCCGGTAATCCGTATTTGCT (site CGTTTGGCTAG) | 0

Sequence | recombinant UMI read abundance (log10)
CGTTTGGCATGGACCGGTTTTCCCGGTAATCCGTATTTGCT (site CGTTTGGCTAT) | 0.00603
CGTTTGGCATGGACCGGTTTTCCCGGTAATCCGTATTTGCT (site CGTTTGGCTCG) | 0.00605
CGTTTGGCATGGACCGGTTTTCCCGGTAATCCGTATTTGCT (site CGTTTGGCTGG) | 0
CGTTTGGCATGGACCGGTTTTCCCGGTAATCCGTATTTGCT (site CGTTTGGCTTG) | 0
CGTTTGGCATGGACCGGTTTTCCCGGTAATCCGTATTTGCT (site CGTTTGTCTAG) | 0
CGTTTGGCATGGACCGGTTTTCCCGGTAATCCGTATTTGCT (site CGTTTTGCTAG) | 0
CGTTTGGCATGGACCGGTTTTCCCGGTAATCCGTATTTGCT (site CTTTTGGCTAG) | 0
CGTTTGGCATGGACCGGTTTTCCCGGTAATCCGTATTTGCT (site GGTTTGGCTAG) | 0
CGTTTGGCATGGACCGGTTTTCCCGGTAATCCGTATTTGCT (site TGTTTGGCTAG) | 0.00607
CTAAATGCATGGACCGGTTTTCCCGGTAATCCGTATTTGAG (site CTAAATGCTCT) | 2.87
CTAAGCACATGGACCGGTTTTCCCGGTAATCCGTATTTGCT (site CTAAGCACTAG) | 1.9
CTAAGCCCATGGACCGGTTTTCCCGGTAATCCGTATTTGAA (site CTAAGCCCTTT) | 1.25
CTAAGCGCATGGACCGGTTTTCCCGGTAATCCGTATTTGAA (site CTAAGCGCTTT) | 2.02
CTAAGTCCATGGACCGGTTTTCCCGGTAATCCGTATTTGGA (site CTAAGTCCTTC) | 0.16
CTAATAACATGGACCGGTTTTCCCGGTAATCCGTATTTGAC (site CTAATAACTGT) | 2.34
CTAATAACATGGACCGGTTTTCCCGGTAATCCGTATTTGAC (site CTAGTATCTGT) | 0
CTAATAACATGGACCGGTTTTCCCGGTAATCCGTATTTGAT (site CTAATAACTAT) | 2.54
CTAATGACATGGACCGGTTTTCCCGGTAATCCGTATTTGAC (site CTAATGACTGT) | 1.47
CTAATTTCATGGACCGGTTTTCCCGGTAATCCGTATTTGCC (site CTAATTTCTGG) | 1.14

Reference: the supplement of paper PMC11208160
